Laboratory results published in patent publication US20080051464A1, “Protein phosphatase inhibitors” (The Cleveland Clinic Foundation, priority 2006, published 2008).

Assays:
recombinant SHP-1 = target: T1, recombinant SHP-1 (Homo sapiens, UniProt P29350); assay: rapid in vitro SHP-1 PTPase assay (DIFMUP substrate); format: biochemical; settings: 1 μg/well; FIG. 12A
T1 construct: Recombinant protein of SHP-1 PTPase catalytic domain was described
T1 sequence (P29350 244-515 limits assumed): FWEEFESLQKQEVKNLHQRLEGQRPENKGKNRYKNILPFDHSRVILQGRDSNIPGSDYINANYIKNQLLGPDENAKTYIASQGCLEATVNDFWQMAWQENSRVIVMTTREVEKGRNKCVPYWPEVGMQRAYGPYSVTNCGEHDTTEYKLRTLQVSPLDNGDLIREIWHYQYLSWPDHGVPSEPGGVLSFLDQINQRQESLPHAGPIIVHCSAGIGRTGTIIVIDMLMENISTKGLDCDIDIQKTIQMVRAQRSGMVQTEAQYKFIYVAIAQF
Method: Recombinant protein of SHP-1 PTPase catalytic domain was described and stored in Tris buffer (25 mM Tris, pH7.5, 1 mM EDTA, 2 μM 2-ME, 25% glycerol) at −80° C. Fluorescence substrate DIFMUP (6,8-difluoro-4 methylumbelliferyl phosphate) was purchased (Molecular Probes). SSG was reported previously (21-23) and stored at 4° C. in darkness prior to use. Human and mouse IFNγ ELISPOT Kit (R & D System), CD4^+ Cell Intracellular IFNγ Detection Kit (BD Bioscience) and CD8^+ Cell Intracellular IFNγ Detection Kit (BD Bioscience) were purchased from commercial sources. Human Jurkat T cell line (26) and murine B16 melanoma cell line (ATCC) were maintained in […] culture medium supplemented with 10% fetal calf serum (FCS). Antibodies against pLck-pY394 (Cell Signaling), pLck-pY505 (Cell Signaling), pZap70 (pY319, BD Biosciences), pSlp76 (pY128, BD Biosciences) and pLat (pY226, BD Biosciences) were purchased from commercial sources.
(§1) A rapid SHP-1 PTPase assay was developed for screening the compounds in a commercial library of 34,000 drug-like small chemicals (Chembridge, Mass.). Briefly, compounds of the library (1 μg/well in 0.21 DMSO) were placed in 96-well plates (Falcon, 353072) and mixed with recombinant SHP-1 protein (0.1 μg/well) in 90 μl of HEPES buffer (50 mM HEPS, pH 7.5, 150 mM NaCl, 1 mM EDTA, 0.2 mM DTT and 0.1 mg/ml BSA). The plates were incubated at room temperature for 10 minutes prior to the addition of fluorescence substrate DIFMUP (40 μM stock in HEPES buffer, 10 μl/well) to initiate PTPase reaction. Upon completion of PTPase reaction at room temperature for 1 hr in darkness, fluorescence signal of individual wells were recorded using a Vector^2 Multilabel Counter (Vector, CA). They were compared to that of control SHP-1 PTPase reaction (˜10,000 units of fluorescence signal) in the absence of any compound (100%) for calculating relative SHP-1 inhibition induced by the compounds after subtracting the background signal (˜500 units of fluorescence signal) of the substrate.
as §1, with “To evaluate their” for “A rapid”, “inhibitory activity,” for “PTPase assay was developed for screening”, “analogs” for “compounds in a commercial library of 34,000 drug-like small chemicals (Chembridge, Mass.). Briefly, compounds of the library”, “0.2 μl” for “0.21”, “aliquot individually to” for “placed in”, “(500” for “(˜500”

[1] = tested on: SHP-1 substrate pLck-pY394 in Jurkat T cells; assay: induction of pLck-pY394 in Jurkat cells (SDS-PAGE/Western blotting); format: cell-based, human
Method: (§2) Jurkat cells in culture medium (3×10^6 cells/ml, 1 ml/tube) were treated with agents for designated times at room temperature. After brief centrifuging in a microfuge (4,000 rpm, 2 min), the cell pellet was lysed on ice for 30 min in 100 μl of cold lysis buffer (1% NP40, 50 mM Tris, pH 7.4, 150 mM NaCl, 20 mM NaF, 0.2 mM Na3VO4 and 1 mM Na3MO4) containing a cocktail of proteinase inhibitors (Sigma, 1 tablet/10 ml). The lysates were cleared by centrifuging (14,000 rpm, 10 min) in a microfuge at 4° C. to remove insoluble parts, mixed with equal volume of 2×SDS-PAGE sample buffer, boiled for 5 min and analyzed (˜3×10^5 cells/well) by SDS-PAGE/Western blotting. Relative intensities of phosphotyrosine bands were quantified through densitometry analysis.
as §2, with “blotting as described previously (23, 24).” for “blotting.”
as §2, with “blotting as described previously (17, 18).” for “blotting.”

B16 melanoma cells = assay: B16 melanoma cell growth in culture (MTT assay); format: cell-based, mouse; settings: 6 days (FIG. 13C)
Source text: L5, L6 and L6 analogs (Chembridge), mouse IFNγ ELISPOT Kit (R & D System) and antibody against pLck-pY394 or pERK1/2 (Cell Signaling) were purchased from commercial sources. Human Jurkat T cell line and murine B16 melanoma cell line (ATCC) and other cancer cell lines were maintained in […] culture medium supplemented with 10% fetal calf serum (FCS). The effects of chemical compounds on cancer cell growth in culture were quantified by MTT assays following our established procedures.

[2] = tested on: CD3+ and CD3− IFNγ+ splenocytes; assay: spleno-IFNγ+ T cells in B16 tumor mice (flow cytometry); format: in vivo, mouse; settings: 1 mg/kg oral, day 22
Method: Splenocytes from mice untreated or treated with L5a2 were stained with appropriate isotype control antibodies or FICT-labeled anti-CD3 monoclonal antibody (BD) plus PE-labeled monoclonal antibody (BD) for intracellular IFNγ following established procedures. The stained samples were washed 3 times, re-suspended in 200 μl of 1% para-formaldehyde solution and analyzed (20,000 cells/sample) using a BD FACS Caliburs cytometer and FlowJoe software.
To gain further insights into the mechanism of action in L5a2 in vivo, spleens were harvested from the B16 tumor mice in the control and the L5a2-treated groups (FIG. 13A) on day 22 to assess whether L5a2 induced IFNγ+ cells in the tumor-bearing mice. It was also determined whether the induced-IFNγ+ cells were of CD3+ T lymphocytes, which were activated TH1 critical for anti-tumor immunity. Splenocytes were prepared and co-stained for intracellular IFNγ and the T cell surface marker CD3 for quantification of IFNγ+T cells by flow cytometry.

B16 melanoma tumors = assay: B16 melanoma tumor growth in C57BL/6J mice; format: in vivo
Method: Tumor volume (n=5) was measured during the study period and calculated using the formula for a prolate spheroid. Student's t test was used for assessing the significance of tumor volume differences among differential treatment groups. Mouse viability (daily) and body weights (weekly) were also recorded during the study period. Major internal organs of the mice were inspected visually upon their termination at the end of the experiment.
To assess anti-tumor activity, C57BL/6J mice (˜8-week old, female, Taconic Farms, Germantown, N.Y.) were inoculated (s.c.) at the flanks with B16 melanoma cells (4×10^4 cells/site). […] Tumor volume (n=5) was measured during the study period and calculated using the formula for a prolate spheroid. Student's t test was used for assessing the significance of tumor volume differences among differential treatment groups. Mouse viability (daily) and body weights (weekly) were also recorded during the study period. Major internal organs of the mice were inspected visually upon their termination at the end of the experiment.

[3] = tested on: IFNγ+ cells in mouse splenocytes; assay: induction of IFNγ+ cells in mouse splenocytes in vitro (ELISPOT); format: cell-based
Method: The splenocytes were cultured in RPMI 1640 medium supplemented with 10% FCS in the absence or presence of designated agents for 16 hrs in flat-bottom 96-well plates coated with a monoclonal antibody specific for mouse IFNγ (mouse IFNγ ELISPOT Kit, R & D System). The plates were then processed for in situ detection of IFNγ+ cells by ELISA following the manufacturer's procedure. Scanning and counting of IFNγ+ cells in the plates were accomplished using an automatic ELISPOT reader with Immunospot2 software (Cellular Technology Ltd). Mouse splenocytes were also untreated or treated with agents for 16 hrs in culture dishes and then stained with appropriate isotype control antibodies or FICT-labeled anti-CD3 monoclonal antibody (BD) plus PE-labeled monoclonal antibody (BD) for intracellular IFNγ following established procedures. The stained samples were washed 3 times, re-suspended in 200 μl of 1% para-formaldehyde solution and analyzed (20,000 cells/sample) using a BD FACS Caliburs cytometer and WinList software.
The splenocytes were cultured in RPMI 1640 medium supplemented with 10% FCS in the absence or presence of designated agents for 16 hrs in flat-bottom 96-well plates coated with a monoclonal antibody specific for mouse IFNγ (mouse IFNγ ELISPOT Kit, R & D System). The plates were then processed for in situ detection of IFNγ+ cells by ELISA following the manufacturer's procedure. Scanning and counting of IFNγ+ cells in the plates were accomplished using an automatic ELISPOT reader with Immunospot2 software (Cellular Technology Ltd).

Jurkat cells = assay: Jurkat cell apoptosis (Annexin V / 7-AAD, FACS); format: cell-based, human; settings: 16 hrs (FIG. 23)
Method: FIG. 23 illustrates jurkat cells were treated with L6 and analogs in culture for 16 hrs. Cells were then stained for apoptotic marker Annexin V and cell death marker 7-AAD prior to FACS analysis.

[4] = tested on: HT-29 human colon cancer cells; assay: cytotoxicity of 5FU against HT-29 cells with L6 or analogs (MTT assay); format: cell-based; settings: 5FU 2 μm, 3 days, then 4 days culture (FIG. 24)
Method: FIG. 24 illustrates HT-29 cells were treated with L6 or the analogs in the absence or presence of 5FU (2 μm) for 3 days. After washing, the cells were cultured for 4 days prior to quantification of viable cells by MTT assays.

MKPs = assay: induction of MKPs substrates in Jurkat cells (Western blotting); format: cell-based, human
Method: FIG. 22 illustrates selective induction of MKPs substrates by L6 and analogs in Jurkat human leukemic cells. Jurkat cells were treated with the compounds for 30 min in culture prior to quantification of MKPs substrates by SDS-PAGE/Western blotting.

SHP-1 and SHP-2 = assay: SSG inhibition of recombinant and intracellular SHPs (applicant's earlier studies); settings: clinically achievable levels

O=C1C=CC(=O)C(c2ccc(Cl)cc2Cl)=C1 [L5a1]
inhibition of phosphatase activity of recombinant SHP-1 (recombinant SHP-1): completely or almost completely inhibited
effectiveness in inducing pLck-pY394 relative to L5 ([1]; Jurkat cells, 10 min (FIG. 10)): ~50%

O=C1C=CC(=O)C(c2cccc(Cl)c2)=C1 [L5a2]
inhibition of phosphatase activity of recombinant SHP-1 (recombinant SHP-1): completely or almost completely inhibited
inhibition of B16 melanoma cells in culture (B16 melanoma cells): failed to inhibit B16 melanoma cells in culture
increase of CD3+ IFNγ+ cells [2]: ~4.5 fold
increase of CD3− IFNγ+ cells [2]: 1.3 fold
growth inhibition of B16 tumors vs control (B16 melanoma tumors; 1 mg/kg body weight daily, Monday-Friday/week, oral gavage): ~75%
survival of treated mice (B16 melanoma tumors; 1 mg/kg daily, oral gavage): survived till the end of the study
immune cell activation (increase) ([3]; FIG. 11): ~20 fold

O=C1C=C(c2ccccc2)C(=O)c2ccccc21 [L5a3]
inhibition of phosphatase activity of recombinant SHP-1 (recombinant SHP-1): ~80%

CCOc1ccc(C2=CC(=O)C=CC2=O)cc1 [L5a4]
inhibition of phosphatase activity of recombinant SHP-1 (recombinant SHP-1): completely or almost completely inhibited

COc1ccc(C2=CC(=O)C=CC2=O)cc1 [L5a5]
inhibition of phosphatase activity of recombinant SHP-1 (recombinant SHP-1): completely or almost completely inhibited

O=C1C=C(c2ccccc2Cl)CC(=O)C1 [L5a10]
inhibition of phosphatase activity of recombinant SHP-1 (recombinant SHP-1): ~5%
effect on pLck-pY394 levels ([1]; Jurkat cells, 10 min (FIG. 10)): failed to induce pLck-pY394
inhibition of B16 melanoma tumors in mice (B16 melanoma tumors; preliminary experiment): failed to inhibit B16 melanoma tumors
induction of spleno-IFNγ+ cells (average) ([3]; doses from 1-30 μg/ml): ~2 folds

O=c1cc(Cl)sn1Cc1ccccc1 [L6a1]
Jurkat cell apoptosis (Jurkat cells): failed to induce apoptosis
augmentation of 5FU cytotoxicity against HT-29 cells [4]: not
MKP predominantly targeted (as indicated by effects on the substrates) (MKPs): inhibited HVH3
differential effects on MKP substrates (pERK1/2, p38, pJNK) (MKPs; 30 min (FIG. 22), L6 at 1-100 ng/ml): lack of activity to induce pJNK or p-p39

O.O.O.O.O.O.O.O.O.O=C([O-])[C@@H]1[O][Sb]2([O-])([O][Sb]34([OH])[O][C@H]([C@H](O)CO)[C@H]([O]3)[C@H](C(=O)[O-])[O]4)[O][C@H]([C@H](O)CO)[C@@H]1[O]2.[Na+].[Na+].[Na+] [SSG, Sodium Stibogluconate, reference compound]
pLck-pY394 induction ([1]; lower (1 μg/ml) or higher (100 μg/ml) doses): failed
level at which recombinant and intracellular SHP-1 and SHP-2 are inhibited (SHP-1 and SHP-2): 10 µg/mL
